{"source": "paper PMC11444331", "about": "(Journal of medicinal chemistry, 2024)", "key": {"human α9α10 nAChRs": {"molecular_target": "human α9α10 nAChRs (Homo sapiens, UniProt Q9GZZ6+Q9UGM1)", "sequence (Q9UGM1 26-479 limits assumed)": "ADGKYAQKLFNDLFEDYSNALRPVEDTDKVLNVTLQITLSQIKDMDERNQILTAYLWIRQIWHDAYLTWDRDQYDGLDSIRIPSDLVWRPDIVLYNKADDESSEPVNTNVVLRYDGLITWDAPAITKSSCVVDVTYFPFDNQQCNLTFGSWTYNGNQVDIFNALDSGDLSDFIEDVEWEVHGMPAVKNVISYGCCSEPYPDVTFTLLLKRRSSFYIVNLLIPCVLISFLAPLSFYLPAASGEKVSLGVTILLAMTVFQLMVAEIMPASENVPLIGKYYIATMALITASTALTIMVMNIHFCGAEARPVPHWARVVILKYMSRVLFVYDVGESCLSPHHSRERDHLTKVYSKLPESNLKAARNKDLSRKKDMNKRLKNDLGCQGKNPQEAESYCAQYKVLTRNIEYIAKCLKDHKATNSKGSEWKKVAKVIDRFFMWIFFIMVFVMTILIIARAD", "sequence (Q9GZZ6 25-450 limits assumed)": "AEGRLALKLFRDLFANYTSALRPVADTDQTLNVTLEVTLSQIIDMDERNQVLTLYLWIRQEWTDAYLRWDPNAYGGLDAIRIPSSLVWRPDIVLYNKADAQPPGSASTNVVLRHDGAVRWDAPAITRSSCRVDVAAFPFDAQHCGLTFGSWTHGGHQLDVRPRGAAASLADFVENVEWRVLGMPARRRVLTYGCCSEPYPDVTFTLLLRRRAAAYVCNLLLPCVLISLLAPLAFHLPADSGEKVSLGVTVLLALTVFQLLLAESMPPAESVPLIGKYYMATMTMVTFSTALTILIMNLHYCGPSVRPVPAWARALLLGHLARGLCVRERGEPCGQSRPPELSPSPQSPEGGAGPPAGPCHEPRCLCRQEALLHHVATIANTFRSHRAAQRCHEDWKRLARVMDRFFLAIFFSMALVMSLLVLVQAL", "assay": "cell-based"}, "human α7 nAChRs": {"molecular_target": "human α7 nAChRs (Homo sapiens, UniProt P36544)", "sequence (P36544 23-502 limits assumed)": "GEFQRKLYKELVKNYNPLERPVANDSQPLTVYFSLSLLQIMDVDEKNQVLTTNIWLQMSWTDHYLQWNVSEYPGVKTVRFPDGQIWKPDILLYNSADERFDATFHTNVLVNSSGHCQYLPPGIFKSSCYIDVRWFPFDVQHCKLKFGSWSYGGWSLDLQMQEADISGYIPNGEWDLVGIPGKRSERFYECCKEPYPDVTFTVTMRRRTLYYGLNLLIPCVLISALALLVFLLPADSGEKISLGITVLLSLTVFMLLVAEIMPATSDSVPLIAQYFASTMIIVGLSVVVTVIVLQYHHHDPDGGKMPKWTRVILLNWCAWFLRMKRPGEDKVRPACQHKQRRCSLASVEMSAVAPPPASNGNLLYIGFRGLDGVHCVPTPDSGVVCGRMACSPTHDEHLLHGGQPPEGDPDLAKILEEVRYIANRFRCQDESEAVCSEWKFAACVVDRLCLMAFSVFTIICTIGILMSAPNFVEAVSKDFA", "assay": "cell-based"}}, "note": "Bridge positions count the residues as written; N and C are the ends. Peptide text beside a SMILES is read from it."}
{"smiles": "C[C@@H]1NC(=O)[C@H](CCCNC(=N)N)NC(=O)[C@H](CO)NC(=O)[C@H](CCCNC(=N)N)NC(=O)[C@H](CO)NC(=O)[C@@H]2CSSC[C@H](NC(=O)CN)C(=O)N[C@@H](CSSC[C@@H](C(N)=O)NC(=O)[C@H](CO)NC(=O)[C@H](CO)NC1=O)C(=O)N[C@@H](CO)C(=O)N[C@@H](Cc1c[nH]cn1)C(=O)N1CCC[C@H]1C(=O)N[C@@H](C)C(=O)N2", "note": "[conofurin-Delta-SRSRASS] (H-GCCSHPACSRSRASSC-NH2; disulfide 2-8, 3-16)", "values": [{"measurement": "IC50", "setting": "human α9α10 nAChRs", "result": "> 10", "unit": "µM"}, {"measurement": "IC50", "setting": "human α7 nAChRs", "result": 5.4, "unit": "µM"}]}
